One experiment deals with T1, Human ACC1 (Homo sapiens, UniProt Q13085).
T1 construct: made in house; host or cells: SF-9 insect cells (baculovirus, pFAST-BacHTc)
The experiment is described as follows: In vitro enzymatic ACC activity assay (malachite green), ACC1. The class given is biochemical. Conditions: recombinant His-tagged enzyme, absorbance at 620 nm. How it is done:
(§1) Provided in Example A is an in vitro enzymatic ACC activity assay for activity against ACC. The binding affinity of the test compound to ACC1 or ACC2 is determined by the changes in absorbance (at 620 nm); […]. It should be noted that a variety of other expression systems and hosts are also suitable for the expression of ACC, as would be readily appreciated by one of skill in the art.
Human ACC1 cDNA was amplified from human liver cDNA by polymerase chain reaction using primers; 5′[…]3′ (SEQ ID NO: 1) and 5′[…]3′ (SEQ ID NO: 2). The amplified DNA fragment was digested by restriction enzyme SalI and NotI, and cloned into pFAST-BacHTc (Invitrogen). This plasmid DNA was used for preparation of recombinant vaculovirus with BAC-TO-BAC Baculovirus Expression System (Invitrogen).
SF-9 cells were infected with the vaculovirus and cultured at 27° C. for 3 days. Harvested cells were homogenized in buffer A (25 mM HEPES (pH7.5), 130 mM NaCl, 1 mM EDTA, 25 mM sodium glycerophosphate, 1 mM sodium orthovanadate, 10% glycerol, complete protease inhibitor), and subjected to ultracentrifuge at 185700×g for 50 min at 4° C. ACC1 protein with 6×His-tag at the N-terminal was purified from the supernatant using Ni-NTA Super Flow Gel (QIAGEN). Eluted protein was dialysed against buffer B (50 mM HEPES (pH 7.5), 300 mM NaCl, 10 mM MgCl2, 10 mM tripotassium citrate, 2 mM dithiothreitol) and concentrated using Vivaspin20 ultrafiltration tube (Sartorius).
(§2) Malachite green solution was prepared by mixing 100 mL of solution A (0.12% malachite green in 5NH2SO4), 25 mL of solution B (7.5% ammonium molybdate) and 2 mL of solution C (11% TWEEN-20).
(§3) ACC1 was diluted to 8 μg/mL in reaction buffer (50 mM HEPES pH7.5, 10 mM MgCl2, 10 mM tripotassium citrate, 2 mM DTT, 0.75 mg/mL fatty acid free BSA) and 10 μL diluted enzyme solution was pored into each well of 384-well clear bottom plate. Test compound was diluted in the reaction buffer and 5 μL of the compound solution was added into each well, and the mixture was incubated at 30° C. for 60 minutes. Reaction was initiated by addition of 5 μL substrate solution (50 mM KHCO3, 200 μM ATP, 200 μM acetyl-CoA). After incubation at 30° C. for 20 minutes, reaction was terminated by addition of 5 μL malachite green solution and absorbance at 620 nm was measured.
(§4) Percent activity at each concentration of compound was calculated from the following equation: […]
(§5) Data were subjected to nonlinear regression analysis using GraphPad Prism Software (GraphPad Software Inc.) to obtain IC50 values.

Another experiment concerns the target T2, Human ACC2 (Homo sapiens, UniProt O00763).
T2 construct: made in house; host or cells: SF-9 insect cells (baculovirus, pFAST-BacHTa)
The experiment is described as follows: In vitro enzymatic ACC activity assay (malachite green), ACC2. It is filed as biochemical. The conditions noted are these: recombinant His-tagged enzyme, absorbance at 620 nm. How it is done:
as §1
Human ACC2 cDNA except coding region for mitochondria localization sequence was amplified from human skeletal muscle cDNA by polymerase chain reaction using primers; 5′[…]3′ (SEQ ID NO: 3) and 5′[…]3′ (SEQ ID NO: 4). The amplified DNA fragment was digested by SalI and AflII, and cloned into pFAST-BacHTa (Invitrogen). Preparation of recombinant vaculovirus, infection of the virus to SF-9 cells and purification of recombinant ACC2 protein with 6×His-tag at the N-terminal were performed in the same method as described above.
as §2, §3
ACC2 was diluted to 6.4 μg/mL in reaction buffer, and the activity was measured by the same method as described for ACC1.
as §4, §5

Broadly, the IC50 is the point on the concentration scale where inhibition reaches its midpoint.

Bounds are passed on as bounds.

T2 sequence (O00763 117-2458 limits assumed): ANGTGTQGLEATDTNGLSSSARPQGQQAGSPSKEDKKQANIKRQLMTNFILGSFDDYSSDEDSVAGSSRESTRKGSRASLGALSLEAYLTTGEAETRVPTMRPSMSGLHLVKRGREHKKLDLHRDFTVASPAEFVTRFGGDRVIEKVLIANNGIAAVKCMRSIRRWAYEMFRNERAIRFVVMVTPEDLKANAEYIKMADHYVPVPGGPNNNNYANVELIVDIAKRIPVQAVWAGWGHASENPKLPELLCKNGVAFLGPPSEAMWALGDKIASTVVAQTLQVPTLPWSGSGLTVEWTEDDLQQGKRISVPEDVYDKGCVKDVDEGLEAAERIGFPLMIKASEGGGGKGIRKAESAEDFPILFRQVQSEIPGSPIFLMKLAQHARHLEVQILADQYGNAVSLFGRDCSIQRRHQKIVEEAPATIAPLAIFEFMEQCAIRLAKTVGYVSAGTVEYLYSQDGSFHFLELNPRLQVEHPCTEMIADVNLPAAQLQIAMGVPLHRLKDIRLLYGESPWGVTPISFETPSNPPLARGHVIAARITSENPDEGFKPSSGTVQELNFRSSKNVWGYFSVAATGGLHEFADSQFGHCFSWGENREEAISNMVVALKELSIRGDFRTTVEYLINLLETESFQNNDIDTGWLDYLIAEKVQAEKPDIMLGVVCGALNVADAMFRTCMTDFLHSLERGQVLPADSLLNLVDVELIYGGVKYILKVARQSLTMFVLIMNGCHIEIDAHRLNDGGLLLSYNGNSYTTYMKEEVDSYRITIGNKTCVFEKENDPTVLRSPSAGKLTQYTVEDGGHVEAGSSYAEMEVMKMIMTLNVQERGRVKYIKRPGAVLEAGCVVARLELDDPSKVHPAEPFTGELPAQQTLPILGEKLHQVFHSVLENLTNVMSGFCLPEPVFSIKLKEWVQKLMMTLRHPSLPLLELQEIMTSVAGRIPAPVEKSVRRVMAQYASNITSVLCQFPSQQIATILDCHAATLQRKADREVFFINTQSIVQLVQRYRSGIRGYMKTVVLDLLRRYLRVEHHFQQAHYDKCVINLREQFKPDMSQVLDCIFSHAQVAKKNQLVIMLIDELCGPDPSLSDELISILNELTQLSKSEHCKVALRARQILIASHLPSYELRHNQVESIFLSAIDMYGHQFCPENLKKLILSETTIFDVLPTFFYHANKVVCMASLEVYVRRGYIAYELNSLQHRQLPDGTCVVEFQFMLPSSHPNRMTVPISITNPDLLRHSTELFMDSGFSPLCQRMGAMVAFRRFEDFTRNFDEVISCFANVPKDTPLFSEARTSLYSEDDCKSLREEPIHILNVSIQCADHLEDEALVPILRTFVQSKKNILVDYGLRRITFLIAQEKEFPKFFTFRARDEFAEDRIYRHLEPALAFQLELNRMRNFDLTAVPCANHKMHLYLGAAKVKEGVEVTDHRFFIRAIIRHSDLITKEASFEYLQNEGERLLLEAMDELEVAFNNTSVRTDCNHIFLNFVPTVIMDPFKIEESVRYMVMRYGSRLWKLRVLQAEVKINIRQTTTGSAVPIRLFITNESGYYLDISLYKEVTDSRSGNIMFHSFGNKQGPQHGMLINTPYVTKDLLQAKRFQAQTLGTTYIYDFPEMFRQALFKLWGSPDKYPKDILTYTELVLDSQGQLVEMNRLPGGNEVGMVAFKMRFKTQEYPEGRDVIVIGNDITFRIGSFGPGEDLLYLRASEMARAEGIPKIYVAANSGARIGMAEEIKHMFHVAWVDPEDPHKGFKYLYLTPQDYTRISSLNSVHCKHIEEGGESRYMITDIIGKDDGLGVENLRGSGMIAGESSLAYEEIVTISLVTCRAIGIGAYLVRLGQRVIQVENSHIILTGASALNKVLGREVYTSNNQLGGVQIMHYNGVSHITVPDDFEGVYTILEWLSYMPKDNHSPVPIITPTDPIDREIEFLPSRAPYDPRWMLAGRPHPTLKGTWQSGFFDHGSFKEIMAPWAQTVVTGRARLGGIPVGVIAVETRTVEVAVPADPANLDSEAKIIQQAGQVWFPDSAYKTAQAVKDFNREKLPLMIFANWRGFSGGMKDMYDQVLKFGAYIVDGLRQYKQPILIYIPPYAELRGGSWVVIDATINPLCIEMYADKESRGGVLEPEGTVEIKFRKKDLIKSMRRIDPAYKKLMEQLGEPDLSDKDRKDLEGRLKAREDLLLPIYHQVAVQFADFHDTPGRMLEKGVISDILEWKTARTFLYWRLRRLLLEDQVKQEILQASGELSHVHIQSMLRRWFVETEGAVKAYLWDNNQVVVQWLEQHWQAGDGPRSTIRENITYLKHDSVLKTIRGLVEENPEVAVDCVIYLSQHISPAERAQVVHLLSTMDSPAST

As for `CCNC(=O)Nc1sc2ccccc2c1C(=O)N1CCN(S(=O)(=O)c2ccccc2C#N)CC1` [Example 2, 1-(3-(4-(2-cyanophenylsulfonyl)piperazine-1-carbonyl)benzo[b]thiophen-2-yl)-3-ethylurea], the half-inhibitory concentration (IC50) at Human ACC1 and on Human ACC2 was above 50 µM each time.

As to `CCNC(=O)Nc1sc2ccccc2c1C(=O)N1CCN(S(=O)(=O)c2ccccc2)CC1` [Example 3, ethyl-3-(3-(4-(phenylsulfonyl)piperazine-1-carbonyl)benzo[b]thiophen-2-yl)urea], the IC50 at Human ACC1 and at Human ACC2 was above 50 µM each time.

As to `CCNC(=O)Nc1sc2ccccc2c1C(=O)N1CCN(S(=O)(=O)c2ccc3c(c2)OCO3)CC1` [Example 4, 1-(3-(4-(benzo[d][1,3]dioxol-5-ylsulfonyl)piperazine-1-carbonyl)benzo[b]thiophen-2-yl)-3-ethylurea], the concentration for half-maximal inhibition (IC50) on Human ACC1 was above 50 µM; on Human ACC2, 5 to 50 µM.

Regarding `CCNC(=O)Nc1sc2ccccc2c1C(=O)N1CCN(S(=O)(=O)c2cccc(S(C)(=O)=O)c2)CC1` [Example 5, ethyl-3-(3-(4-(3-(methylsulfonyl)phenylsulfonyl)piperazine-1-carbonyl)benzo[b]thiophen-2-yl)urea], the IC50 at Human ACC1 and at Human ACC2 was 5 to 50 µM each time.

Consider `CCNC(=O)Nc1sc2ccccc2c1C(=O)N1CCN(S(=O)(=O)c2ccc3nsnc3c2)CC1` [Example 6, 1-(3-(4-(benzo[c][1,2,5]thiadiazol-5-ylsulfonyl)piperazine-1-carbonyl)benzo[b]thiophen-2-yl)-3-ethylurea], for which the concentration for half-maximal inhibition (IC50) at Human ACC1 and at Human ACC2 was above 50 µM in each case.

As to `CCNC(=O)Nc1sc2ccccc2c1C(=O)N1CCN(S(=O)(=O)c2cccc(OC)c2)CC1` [Example 7, ethyl-3-(3-(4-(3-methoxyphenylsulfonyl)piperazine-1-carbonyl)benzo[b]thiophen-2-yl)urea], the IC50 at Human ACC1 was above 50 µM; on Human ACC2, below 5 µM.

`CCNC(=O)Nc1sc2ccccc2c1C(=O)N1CCN(S(=O)(=O)c2cccc(NC(C)=O)c2)CC1` [Example 8, N-(3-(4-(2-(3-ethylureido)benzo[b]thiophene-3-carbonyl)piperazin-1-ylsulfonyl)phenyl)acetamide]: the concentration for half-maximal inhibition (IC50) was 5 to 50 µM on Human ACC1 and below 5 µM on Human ACC2.

For the molecule `CCNC(=O)Nc1sc2ccccc2c1C(=O)N1CCN(S(=O)(=O)c2ccc(Cl)c(S(N)(=O)=O)c2)CC1` [Example 9, 2-chloro-5-(4-(2-(3-ethylureido)benzo[b]thiophene-3-carbonyl)piperazin-1-ylsulfonyl)benzenesulfonamide], the half-inhibitory concentration (IC50) at Human ACC1 and at Human ACC2 was below 5 µM each time.

In the case of `CCNC(=O)Nc1sc2ccccc2c1C(=O)N1CCN(S(=O)(=O)c2cccc(-c3csc(C)n3)c2)CC1` [Example 10, ethyl-3-(3-(4-(3-(2-methylthiazol-4-yl)phenylsulfonyl)piperazine-1-carbonyl)benzo[b]thiophen-2-yl)urea], the figures for the 50% inhibitory concentration (IC50) at Human ACC1 and at Human ACC2 were above 50 µM and 5 to 50 µM, respectively.

Take `CCNC(=O)Nc1sc2ccccc2c1C(=O)N1CCN(S(=O)(=O)c2cccc(-c3nnc(C)o3)c2)CC1` [Example 11, ethyl-3-(3-(4-(3-(5-methyl-1,3,4-oxadiazol-2-yl)phenylsulfonyl)piperazine-1-carbonyl)benzo[b]thiophen-2-yl)urea]: the IC50 at Human ACC1 and on Human ACC2 was 5 to 50 µM in each case.

Regarding `CCNC(=O)Nc1sc2ccccc2c1C(=O)N1CCN(S(=O)(=O)c2cccc(-c3ccnc(C)n3)c2)CC1` [Example 12, ethyl-3-(3-(4-(3-(2-methylpyrimidin-4-yl)phenylsulfonyl)piperazine-1-carbonyl)benzo[b]thiophen-2-yl)urea], the IC50 on Human ACC1 is 5 to 50 µM; on Human ACC2 it was below 5 µM.

Regarding `CCNC(=O)Nc1sc2ccccc2c1C(=O)N1CCN(S(=O)(=O)c2cccc(-c3noc(C)n3)c2)CC1` [Example 13, ethyl-3-(3-(4-(3-(5-methyl-1,2,4-oxadiazol-3-yl)phenylsulfonyl)piperazine-1-carbonyl)benzo[b]thiophen-2-yl)urea], the half-maximal inhibitory concentration (IC50) at Human ACC1 and at Human ACC2 was below 5 µM in each case.

For `CCNC(=O)Nc1sc2ccccc2c1C(=O)N1CCN(S(=O)(=O)c2ccc(N3CCOCC3)nc2)CC1` [Example 14, ethyl-3-(3-(4-(6-morpholinopyridin-3-ylsulfonyl)piperazine-1-carbonyl)benzo[b]thiophen-2-yl)urea], the IC50 on Human ACC1 and at Human ACC2 was below 5 µM each time.

Take `CCNC(=O)Nc1sc2ccccc2c1C(=O)N1CCN(S(=O)(=O)c2cccc(OC(F)(F)F)c2)CC1` [Example 15, ethyl-3-(3-(4-(3-(trifluoromethoxy)phenylsulfonyl)piperazine-1-carbonyl)benzo[f]thiophen-2-yl)urea]: the IC50 on Human ACC1 and on Human ACC2 was above 50 µM throughout.

With `CCNC(=O)Nc1sc2ccccc2c1C(=O)N1CCN(S(=O)(=O)c2cccc([N+](=O)[O-])c2)CC1` [Example 16, ethyl-3-(3-(4-(3-nitrophenylsulfonyl)piperazine-1-carbonyl)benzo[b]thiophen-2-yl)urea], the half-maximal inhibitory concentration (IC50) at Human ACC1 and on Human ACC2 was above 50 µM each time.

As to `CCNC(=O)Nc1sc2ccccc2c1C(=O)N1CCN(S(=O)(=O)C2CCS(=O)(=O)C2)CC1` (stereo not drawn) [Example 17, ethyl-3-(3-(4-(1,1-dioxotetrahydrothiophen-3-ylsulfonyl)piperazine-1-carbonyl)benzo[b]thiophen-2-yl)urea], the IC50 on Human ACC1 and on Human ACC2 was 5 to 50 µM throughout.

As for `CCNC(=O)Nc1sc2ccccc2c1C(=O)N1CCN(S(=O)(=O)c2ccc3c(c2)OCCCO3)CC1` [Example 18, 1-(3-(4-(3,4-dihydro-2H-benzo[b][1,4]dioxepin-7-ylsulfonyl)piperazine-1-carbonyl)benzo[b]thiophen-2-yl)-3-ethylurea], the IC50 at Human ACC1 and on Human ACC2 was below 5 µM throughout.

Take `CCNC(=O)Nc1sc2ccccc2c1C(=O)N1CCN(S(=O)(=O)c2ccc(OC)c(NC(C)=O)c2)CC1` [Example 19, N-(5-(4-(2-(3-ethylureido)benzo[b]thiophene-3-carbonyl)piperazin-1-ylsulfonyl)-2-methoxyphenyl)acetamide]: the half-maximal inhibitory concentration (IC50) at Human ACC1 and on Human ACC2 was below 5 µM each time.

Consider `CCNC(=O)Nc1sc2ccccc2c1C(=O)N1CCN(S(=O)(=O)c2cccc(C(C)=O)c2)CC1` [Example 20, 1-(3-(4-(3-acetylphenylsulfonyl)piperazine-1-carbonyl)benzo[b]thiophen-2-yl)-3-ethylurea], for which the concentration for half-maximal inhibition (IC50) on Human ACC1 and on Human ACC2 was below 5 µM in each case.

Take `CCNC(=O)Nc1sc2ccccc2c1C(=O)N1CCN(S(=O)(=O)c2ccc3ncsc3c2)CC1` [Example 21, 1-(3-(4-(benzo[d]thiazol-6-ylsulfonyl)piperazine-1-carbonyl)benzo[b]thiophen-2-yl)-3-ethylurea]: the IC50 at Human ACC1 and at Human ACC2 was below 5 µM throughout.

Turning to `CCNC(=O)Nc1sc2ccccc2c1C(=O)N1CCN(S(=O)(=O)c2ccc(N3CCCC3=O)cc2)CC1` [Example 22, ethyl-3-(3-(4-(4-(2-oxopyrrolidin-1-yl)phenylsulfonyl)piperazine-1-carbonyl)benzo[b]thiophen-2-yl)urea], the half-maximal inhibitory concentration (IC50) on Human ACC1 was above 50 µM; on Human ACC2, below 5 µM.

The values are drawn from patent publication US20090005375A1, “ACETYL COENZYME A CARBOXYLASE INHIBITORS” (priority 2007, published 2009).
